Test results published in PubChem BioAssay (NCI).
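Compound exposure: 48 hours, 5 concentrations, 96-well plates. TGI: total growth inhibition.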

Tests used:
Assay in all cases: inhibition of tumour cell growth, NCI panel, 48 h
[1] = tested on: SW-620 colon
[2] = tested on: MCF7 breast
[3] = tested on: HL-60(TB) leukemia
[4] = tested on: HCT-116 colon
[5] = tested on: SNB-75 CNS
[6] = tested on: NCI/ADR-RES ovarian
[7] = tested on: HS 578T breast
[8] = tested on: TK-10 renal
[9] = tested on: NCI-H23 lung
[10] = tested on: NCI-H460 lung
[11] = tested on: UO-31 renal
[12] = tested on: A549 NSCLC
[13] = tested on: RPMI-8226 leukemia
[14] = tested on: LOX IMVI melanoma
[15] = tested on: MDA-N
[16] = tested on: SN12C renal
[17] = tested on: A498 renal
[18] = tested on: MOLT-4 leukemia
[19] = tested on: MDA-MB-435

| Compound | TGI [1] | TGI [2] | TGI [3] | TGI [4] | TGI [5] | TGI [6] | TGI [7] | TGI [8] | TGI [9] | TGI [10] | TGI [11] | TGI [12] | TGI [13] | TGI [14] | TGI [15] | TGI [16] | TGI [17] | TGI [18] | TGI [19] |
| --- | --- | --- | --- | --- | --- | --- | --- | --- | --- | --- | --- | --- | --- | --- | --- | --- | --- | --- | --- |
| CCOC(=O)c1cccc(N=Nc2ncc(/C=C/C(=O)OC)[nH]2)c1 | > 100 µM | 86.2 µM | 30 µM | 69.7 µM | 92.4 µM | > 100 µM | > 100 µM | > 100 µM | > 100 µM | 34.5 µM | 72 µM | > 100 µM | 40.5 µM | 51 µM | > 100 µM | 48.5 µM | 67.8 µM | 28.9 µM | > 100 µM |
| CNc1ccc(Cl)cc1C(=O)N1CCC[C@H]1CO | > 100 µM | > 100 µM | > 100 µM | > 100 µM | > 100 µM | > 100 µM | > 100 µM | > 100 µM | > 100 µM | > 100 µM | > 100 µM | > 100 µM | > 100 µM | > 100 µM | > 100 µM | > 100 µM | > 100 µM | > 100 µM | > 100 µM |
